Legend:
[1] = system: P. falciparum stage V male gametocytes (male gamete formation); experiment: P. falciparum dual gamete formation assay (Pf DGFA), male readout (exflagellation), 48 h carry-over format; format: cell-based, Plasmodium falciparum NF54; conditions: for %Inhibition Male @2uM: primary screen, 48 h incubation, single replicate; for Male IC50 / IC50: SAR, Fig. 6 and Fig. 7; for IC50: Plasmodium falciparum, read-out: Male IC50; for Selectivity: parasite selectivity compared to Tox50 in HepG2 cells
Protocol: (§1) P. falciparum NF54 strain (originally isolated from an imported malaria case in the Netherlands in the 1980s; BEI Resources, cat. no. MRA-1000) asexual and sexual stages culture was performed as previously described. Gametocyte cultures were initiated at 1% asexual ring stage parasitaemia and 4% haematocrit in 40 ml final volume. To induce gametocyte production, complete culture medium (CM) (RPMI 1640 supplemented with 25 mM HEPES, 50 µg ml^−1 hypoxanthine, 2 g l^−1 NaHCO3 and 10% pooled human male type A+ serum) was replaced daily for 14 days without fresh erythrocyte addition. Human serum was obtained from Interstate Blood Bank, A^+ serotype; no aspirin 2 h before drawing and no antimalarials 2 weeks before drawing. On day 14 after culture induction, gametocyte production was assessed by thin smear and Giemsa staining, and exflagellation accurately counted in a haemocytometer. Gametocyte cultures with >0.2% exflagellation (compared to total erythrocyte cell number) were deemed acceptable for use in the Pf DGFA. Note, all human biological samples were sourced ethically and their research use was in accord with the terms of the informed consents under an IRB/EC approved protocol.
(§2) In screening mode, the assay was performed as described in Delves et al.[35] with a mean Z′ factor of 0.56 ± 0.14 (SD) (male) and 0.71 ± 0.17 (SD) (female). Pooled mature gametocyte cultures with the capacity to yield >0.2% exflagellation (of total cells) were diluted in CM to 14 million cells per ml and so that 700,000 cells were dispensed in 50 µl into each well of the warmed 384-well screening plates. Parasites were incubated in the plates with compounds for 48 h in a humidified chamber under 92%N2/5% CO2/3% O2 gas mix before gamete formation was triggered by addition of 10 µl per well ookinete medium (RPMI 1640 supplemented with 25 mM HEPES, 50 µg ml^−1 hypoxanthine, 2 g l^−1 NaHCO3, 100 µM xanthurenic acid) containing 0.5 µg ml^−1 anti-Pfs25 clone 4B7 (BEI Resources, cat. no. MRA-315) conjugated to the fluorophore Cy3 (GE Healthcare), and also by cooling the plate at 4 °C for 4 min and then a further 5 min at 28 °C. Exflagellation was recorded immediately by brightfield microscopy using a Nikon Ti-E widefield microscope at ×4 objective, ×1.5 zoom, recording a 10-frame video time-lapse over 2 s for each well. Afterwards, plates were incubated in the dark at 28 °C for a further 24 h to allow female gametes to maximally express Pfs25 on their surface. Female gamete formation was recorded by single-image fluorescence microscopy using the same microscope and magnification as above. Exflagellation and female gamete formation were quantified by specific algorithms designed with the open-source ICY Image Analysis software.
(§3) Assay performance statistics, such as signal to background ratio, Z′ and robust 3×SD activity cut-off were calculated using templates in ActivityBase XE (IDBS, Guilford, Surrey, UK). Hit population analysis and visualisation were conducted using Spotfire DecisionSite (Spotfire, Inc., Somerville, Massachusetts). The pIC50 (−log IC50) values were obtained using the ActivityBase XE nonlinear regression function in the full curve analysis bundle. In screening mode, the Pf DGFA achieved a mean Z′ factor of 0.56 ± 0.14 (SD) (male) and 0.71 ± 0.17 (SD) (female).

[2] = system: P. falciparum stage V female gametocytes (female gamete formation); experiment: P. falciparum dual gamete formation assay (Pf DGFA), female readout (Pfs25 expression), 48 h carry-over format; format: cell-based, Plasmodium falciparum NF54; conditions: primary screen, 2 uM, 48 h incubation, single replicate
Protocol: as §1
as §2, with “Parasites were incubated in the plates with compounds for 48 h in a humidified chamber under” left out
as §3

For `Cc1ccc(-c2noc(C(C)NS(C)(=O)=O)n2)cc1` (stereo not drawn) [DDD01025633], the “%Inhibition Male @2uM” value [1] was 37.79% and the “%Inhibition Female @2uM” value [2] was <30%.

For `Cc1ccc(C(=O)N2CC[C@@]3(O)CCCC[C@H]3C2)cc1` [DDD01026498], the “%Inhibition Male @2uM” value [1] was <30% and the “%Inhibition Female @2uM” value [2] was 36.05%.

`Cn1c(CN2CCCCCC2)cc(=O)c(O)c1CN1CCCC1` [DDD01027184] was tested, and the “%Inhibition Male @2uM” value [1] was 31.50% and the “%Inhibition Female @2uM” value [2] was <30%.

`NC(=O)Cn1c(CO)cnc1SCc1ccccc1Cl` [DDD01027486] was tested, and the “%Inhibition Male @2uM” value [1] was <30% and the “%Inhibition Female @2uM” value [2] was 30.58%.

In the case of `O=C(Nc1ncnc2c1CCC2)c1cccc(F)c1` [DDD01027506], the “%Inhibition Male @2uM” value [1] is reported as <30% and the “%Inhibition Female @2uM” value [2] is reported as 33.11%.

In the case of `COCCc1nnc(NC(=O)CSCc2ccccc2)o1` [DDD01027773], the “%Inhibition Male @2uM” value [1] is reported as 33.86% and the “%Inhibition Female @2uM” value [2] is reported as <30%.

For `O=S(=O)(c1ccccc1Br)N1CCC2(CC1)OCCS2` [DDD01027971], the “%Inhibition Male @2uM” value [1] was <30% and the “%Inhibition Female @2uM” value [2] was 31.22%.

In the case of `C1CCN(c2nc(N3CCOCC3)nc3n[nH]nc23)CC1` [DDD01027997], the “%Inhibition Male @2uM” value [1] is reported as <30% and the “%Inhibition Female @2uM” value [2] is reported as 37.52%.

In the case of `Cc1cccc(CS(=O)(=O)NCc2nn(C)c3c2COCC3)c1` [DDD01028624], the “%Inhibition Male @2uM” value [1] is reported as <30% and the “%Inhibition Female @2uM” value [2] is reported as 40.92%.

`CNC(=O)[C@@H]1COC[C@H]2CN(C(=O)c3ccc(OC)cc3)C[C@H]21` [DDD01030727] was tested, and the “%Inhibition Male @2uM” value [1] was <30% and the “%Inhibition Female @2uM” value [2] was 30.90%.

In the case of `Cc1cnc(N2CCC[C@@H]3CN(CC(=O)N(C)C)C[C@@H]32)nc1` [DDD01031282], the “%Inhibition Male @2uM” value [1] is reported as <30% and the “%Inhibition Female @2uM” value [2] is reported as 34.01%.

With `O=C(Cc1ccsc1)N1C[C@@H]2OCCN(c3cnccn3)[C@@H]2C1` [DDD01031297] the “%Inhibition Male @2uM” value [1] was <30% and the “%Inhibition Female @2uM” value [2] was 38.82%.

In the case of `CCn1ncc2c1C(COC)N(C(=O)c1ccc3c(c1)OCO3)CC2` (stereo not drawn) [DDD01031312], the “%Inhibition Male @2uM” value [1] is reported as <30% and the “%Inhibition Female @2uM” value [2] is reported as 34.92%.

For `COCCN1CCO[C@@H]2CN(C(=O)NCc3cccnc3)CC[C@@H]2C1` [DDD01031413], the “%Inhibition Male @2uM” value [1] was <30% and the “%Inhibition Female @2uM” value [2] was 31.80%.

`c1cc(CNCC2Cn3nncc3CO2)co1` (stereo not drawn) [DDD01031485] was tested, and the “%Inhibition Male @2uM” value [1] was <30% and the “%Inhibition Female @2uM” value [2] was 38.17%.

For `Cc1ccc(CN2CCCC3(CCN(Cc4ccoc4)CC3)C2)cc1` [DDD01031609], the “%Inhibition Male @2uM” value [1] was <30% and the “%Inhibition Female @2uM” value [2] was 33.18%.

In the case of `Cc1ccc(N2CC[C@@H]3[C@@H]2CCN3C(=O)c2cscn2)nn1` [DDD01031738], the “%Inhibition Male @2uM” value [1] is reported as <30% and the “%Inhibition Female @2uM” value [2] is reported as 32.44%.

With `CN1CCN(C(=O)c2cc3c(s2)CCN3C(=O)C2CC2)CC1` [DDD01031830] the “%Inhibition Male @2uM” value [1] was <30% and the “%Inhibition Female @2uM” value [2] was 50.73%.

In the case of `CO[C@H]1CC[C@H]2[C@H]1OCCN2Cc1ccc(F)c(F)c1` [DDD01032445], the “%Inhibition Male @2uM” value [1] is reported as 37.39% and the “%Inhibition Female @2uM” value [2] is reported as <30%.

For `O=C(O)c1nnn(-c2cc(F)cc(F)c2)c1-c1ccncc1` [DDD01034739], the “%Inhibition Male @2uM” value [1] was <30% and the “%Inhibition Female @2uM” value [2] was 37.18%.

In the case of `Cc1cc2c(cc1NC(N)=O)OCO2` [DDD01037848], the “%Inhibition Male @2uM” value [1] is reported as <30% and the “%Inhibition Female @2uM” value [2] is reported as 32.47%.

`O=C(NCc1ccco1)c1[nH]nc2c1CS(=O)(=O)CC2` [DDD01037866] was tested, and the “%Inhibition Male @2uM” value [1] was 48.15% and the “%Inhibition Female @2uM” value [2] was <30%.

In the case of `CCn1nc(C)c2nc(C)nc(NCCc3ccccc3)c21` [DDD01038123], the “%Inhibition Male @2uM” value [1] is reported as <30% and the “%Inhibition Female @2uM” value [2] is reported as 30.36%.

With `CCn1cc(CN2CCN(C(=O)c3cc(C)c(C)s3)CC2)c(C)n1` [DDD01038373] the “%Inhibition Male @2uM” value [1] was <30% and the “%Inhibition Female @2uM” value [2] was 36.25%.

`CCN1CCN(C(=O)C2CC(=O)N(c3cnn(C(C)C)c3)C2)CC1` (stereo not drawn) [DDD01038633] was tested, and the “%Inhibition Male @2uM” value [1] was 42.61% and the “%Inhibition Female @2uM” value [2] was <30%.

In the case of `Cc1ccc2c(c1)c(C)cc(=O)n2CCCN` [DDD01038649], the “%Inhibition Male @2uM” value [1] is reported as <30% and the “%Inhibition Female @2uM” value [2] is reported as 33.62%.

With `COc1ccc(NC(=O)c2cnc(C3CCN(C)CC3)nc2C)cc1` [DDD01056828] the “%Inhibition Male @2uM” value [1] was 33.07% and the “%Inhibition Female @2uM” value [2] was <30%.

With `CC(=O)Nc1ccc(Br)cc1` [compound 7683] the “Male IC50” value [1] was “Inactive”.

With `O=C(CCl)Nc1ccccc1` [compound 11485] the IC50 [1] was 2.41 µM and the Selectivity [1] was 21.

`Cc1ccc(NC(=O)CCl)cc1` [compound 27967] showed an IC50 [1] of 3.39 µM and a Selectivity [1] of 15.

With `COc1cccc(NC(=O)CCl)c1` [compound 28667] the IC50 [1] was 2.21 µM and the Selectivity [1] was 14.

With `COc1ccc(NC(=O)CCl)cc1` [compound 31123] the IC50 [1] was 2.66 µM and the Selectivity [1] was 24.

With `CN(C(=O)CCl)c1ccccc1` [compound 75797] the IC50 [1] was 6.41 µM and the Selectivity [1] was 2.

For `Cc1ccccc1NC(=O)CCl` [compound 101479], the IC50 [1] was 10.4 µM and the Selectivity [1] was 10.

Compound `O=C(CCl)N1CCc2ccccc21` [compound 176897] has an IC50 [1] of 1.63 µM and a Selectivity [1] of 8.

`O=C(CCl)Nc1ccccc1Cl` [compound 222444] was tested, and the IC50 [1] was 11.2 µM and the Selectivity [1] was 7.

In the case of `O=C(CCl)Nc1ccc(Cl)cc1Cl` [compound 225998], the IC50 [1] is reported as 4.03 µM and the Selectivity [1] is reported as 21.

In the case of `O=C(CCl)Nc1ccc(O)cc1` [compound 236323], the IC50 [1] is reported as 1.95 µM and the Selectivity [1] is reported as > 51.

In the case of `Cc1cc(Cl)ccc1NC(=O)CCl` [compound 249708], the IC50 [1] is reported as 5.84 µM and the Selectivity [1] is reported as > 17.

`Cc1cccc(NC(=O)CCl)c1` [compound 296325] was tested, and the IC50 [1] was 4.5 µM and the Selectivity [1] was 18.

In the case of `O=C(CCl)Nc1ccccc1O` [compound 350567], the “Male IC50” value [1] is reported as “Inactive”.

For `O=C(Nc1ccc(Br)cc1)C(Cl)Cl` [compound 532122], the “Male IC50” value [1] was “Inactive”.

In the case of `O=C1C(Cl)=C(Cl)C(=O)N1c1ccc(Br)cc1` [compound 779209], the “Male IC50” value [1] is reported as “Inactive”.

With `N#Cc1ccccc1NC(=O)CCl` [compound 819001] the IC50 [1] was 5.25 µM and the Selectivity [1] was > 19.

In the case of `NCC(=O)Nc1ccc(Br)cc1` [compound 871334], the “Male IC50” value [1] is reported as “Inactive”.

`O=C(CCl)Nc1ccccc1F` [compound 1522874] was tested, and the IC50 [1] was 3.26 µM and the Selectivity [1] was > 31.

`Cc1cc(Br)ccc1NC(=O)CCl` [compound 2097895] showed an IC50 [1] of 4.77 µM and a Selectivity [1] of 4.

In the case of `O=C(Nc1ccc(Br)cc1Cl)C(Cl)(Cl)Cl` [compound 2725563], the “Male IC50” value [1] is reported as “Inactive”.

For `CC(C)c1cc(Br)ccc1NC(=O)CCl` [compound 4066920], the IC50 [1] was 12.1 µM and the Selectivity [1] was 2.

`Cc1cc(Br)ccc1NC(=O)CCCCl` [compound 19226390] was tested, and the “Male IC50” value [1] was “Inactive”.

With `O=C(CCl)Nc1ccc(CO)cc1` [compound 22457525] the IC50 [1] was 2.08 µM and the Selectivity [1] was > 48.

With `COC(=O)Nc1ccc(NC(=O)CCl)cc1` [compound 43701226] the “Male IC50” value [1] was “Inactive”.

— article PMC6143625, “A high throughput screen for next-generation leads targeting malaria parasite transmission” (Nature Communications, 2018)
